Measured values published in PubChem BioAssay AID248 (DTP/NCI, 2004).
Values joined by “and” are separate entries in the source; they are usually repeats but may differ in a detail not shown here. Equal entries are not always repeated. Toxic doses and inconclusive results are not listed. No stated cut-off is given here; in the data, active means T/C of 150% or more; inactive means T/C below 125%.

System: L1210 leukemia ip in BDF1 mice, survival T/C
Assay: NCI In Vivo Anticancer Drug Screen. Data for tumor model L1210 Leukemia (intraperitoneal) in B6D2F1 (BDF1) mice
Conditions: endpoint: mean survival time, higher = longer survival
Procedure, shortened: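 Tumor cells were implanted, animals were treated, and survival was followed. The result divides the treated measurement by the vehicle-control measurement.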

[1] = dose: 100.0 mg/kg/injection, schedule: Q04DX003 (ip), vehicle: saline
[2] = dose: 200.0 mg/kg/injection, schedule: Q04DX003 (ip), vehicle: saline
[3] = dose: 400.0 mg/kg/injection, schedule: Q04DX003 (ip), vehicle: saline
[4] = dose: 100.0 mg/kg/injection, schedule: Q01DX001 (ip), vehicle: carboxymethylcellulose (CMC)
[5] = dose: 200.0 mg/kg/injection, schedule: Q01DX001 (ip), vehicle: carboxymethylcellulose (CMC)
[6] = dose: 100.0 mg/kg/injection, schedule: Q04DX002 (ip), vehicle: Klucel (hydroxypropylcellulose) (HPC)
[7] = dose: 200.0 mg/kg/injection, schedule: Q04DX002 (ip), vehicle: Klucel (hydroxypropylcellulose) (HPC)
[8] = dose: 400.0 mg/kg/injection, schedule: Q04DX002 (ip), vehicle: Klucel (hydroxypropylcellulose) (HPC)

Measured: T/C

Cc1ccc(-c2ccc(C)s2)s1
inactive: dose: 50.0 mg/kg/injection, schedule: Q01DX009 (ip), vehicle: acetone 95 % of control | dose: 100.0 mg/kg/injection, schedule: Q01DX009 (ip), vehicle: acetone 90 % of control | [1] 96 % of control | dose: 200.0 mg/kg/injection, schedule: Q01DX009 (ip), vehicle: acetone 90 % of control | [2] 93 % of control | [3] 100 % of control

O=[N+]([O-])c1cnccc1/C=C\c1ccccc1
inactive: dose: 100.0 mg/kg/injection, schedule: Q01DX001 (ip), vehicle: Klucel (hydroxypropylcellulose) (HPC) 86 % of control | dose: 200.0 mg/kg/injection, schedule: Q01DX001 (ip), vehicle: Klucel (hydroxypropylcellulose) (HPC) 105 % of control | dose: 400.0 mg/kg/injection, schedule: Q01DX001 (ip), vehicle: Klucel (hydroxypropylcellulose) (HPC) 94 % of control

Cc1ccc(N(CCO)CCO)cc1NC(=O)c1ccccc1
inactive: [4] 103 % of control | [5] 101 % of control | dose: 400.0 mg/kg/injection, schedule: Q01DX001 (ip), vehicle: carboxymethylcellulose (CMC) 101 % of control

CC(=O)Nc1ccccc1Cl
inactive: dose: 100.0 mg/kg/injection, schedule: Q01DX009 (ip), vehicle: Klucel (hydroxypropylcellulose) (HPC) 100 % of control | dose: 200.0 mg/kg/injection, schedule: Q01DX009 (ip), vehicle: Klucel (hydroxypropylcellulose) (HPC) 105 % of control | dose: 400.0 mg/kg/injection, schedule: Q01DX009 (ip), vehicle: Klucel (hydroxypropylcellulose) (HPC) 108 % of control

COc1nn(C)c(=O)c2cccnc12
inactive: dose: 75.0 mg/kg/injection, schedule: Q01DX001 (ip), vehicle: saline 96 % of control | dose: 150.0 mg/kg/injection, schedule: Q01DX001 (ip), vehicle: saline 98 % of control

CCCc1c(O)ccc(C)c1C
inactive: dose: 100.0 mg/kg/injection, schedule: Q01DX001 (ip), vehicle: other 91 % of control | dose: 200.0 mg/kg/injection, schedule: Q01DX001 (ip), vehicle: other 103 % of control

C/C=C/[N+]([O-])=NC(C)CCCCCC (centres undefined)
inactive: dose: 100.0 mg/kg/injection, schedule: Q04DX002 (ip), vehicle: saline 105 % of control | dose: 200.0 mg/kg/injection, schedule: Q04DX002 (ip), vehicle: saline 97 % of control | dose: 400.0 mg/kg/injection, schedule: Q04DX002 (ip), vehicle: saline 94 % of control

O=C(O)C(Oc1ccc(Cl)cc1Cl)C(=O)O
inactive: dose: 100.0 mg/kg/injection, schedule: Q04DX002 (ip), vehicle: other 93 % of control | dose: 200.0 mg/kg/injection, schedule: Q04DX002 (ip), vehicle: other 97 % of control | dose: 400.0 mg/kg/injection, schedule: Q04DX002 (ip), vehicle: other 95 % of control

Cc1ccc(S(=O)(=O)F)cc1N
inactive: dose: 25.0 mg/kg/injection, schedule: Q01DX009 (ip), vehicle: carboxymethylcellulose (CMC) 95 % of control and 100 % of control | dose: 25.0 mg/kg/injection, schedule: Q04DX002 (ip), vehicle: carboxymethylcellulose (CMC) 100 % of control and 106 % of control | dose: 50.0 mg/kg/injection, schedule: Q01DX001 (ip), vehicle: carboxymethylcellulose (CMC) 104 % of control and 87 % of control | dose: 50.0 mg/kg/injection, schedule: Q01DX009 (ip), vehicle: carboxymethylcellulose (CMC) 103 % of control and 88 % of control | dose: 50.0 mg/kg/injection, schedule: Q04DX002 (ip), vehicle: carboxymethylcellulose (CMC) 93 % of control and 100 % of control | dose: 50.0 mg/kg/injection, schedule: Q04DX003 (ip), vehicle: carboxymethylcellulose (CMC) 98 % of control and 90 % of control | [4] 101 % of control and 104 % of control | dose: 100.0 mg/kg/injection, schedule: Q04DX002 (ip), vehicle: carboxymethylcellulose (CMC) 107 % of control and 90 % of control | dose: 100.0 mg/kg/injection, schedule: Q04DX003 (ip), vehicle: carboxymethylcellulose (CMC) 94 % of control and 87 % of control | [5] 106 % of control and 111 % of control | dose: 200.0 mg/kg/injection, schedule: Q04DX003 (ip), vehicle: carboxymethylcellulose (CMC) 96 % of control and 87 % of control

C/C=C/C(=O)Nc1cccc(OC(=O)NC(C)CC)c1 (centres undefined)
inactive: dose: 100.0 mg/kg/injection, schedule: Q04DX003 (ip), vehicle: saline with Tween-80 98 % of control | dose: 200.0 mg/kg/injection, schedule: Q04DX003 (ip), vehicle: saline with Tween-80 87 % of control | dose: 400.0 mg/kg/injection, schedule: Q04DX003 (ip), vehicle: saline with Tween-80 93 % of control

CC(C)=CCC1=CC(=O)c2ccccc2C1=O
inactive: dose: 12.0 mg/kg/injection, schedule: Q01DX009 (ip), vehicle: water 97 % of control | dose: 25.0 mg/kg/injection, schedule: Q01DX009 (ip), vehicle: water 102 % of control | dose: 50.0 mg/kg/injection, schedule: Q01DX001 (ip), vehicle: water 96 % of control | dose: 50.0 mg/kg/injection, schedule: Q01DX009 (ip), vehicle: water 96 % of control | dose: 100.0 mg/kg/injection, schedule: Q01DX001 (ip), vehicle: water 102 % of control | dose: 100.0 mg/kg/injection, schedule: Q01DX009 (ip), vehicle: water 95 % of control | dose: 200.0 mg/kg/injection, schedule: Q01DX001 (ip), vehicle: water 105 % of control | dose: 400.0 mg/kg/injection, schedule: Q01DX001 (ip), vehicle: water 92 % of control

CC1=C(Cl)C(=O)C(Cl)=C(C)C1=O
inactive: dose: 5.5 mg/kg/injection, schedule: Q01DX Z (ip), vehicle: methylcellulose (MC) 93 % of control | dose: 8.3 mg/kg/injection, schedule: Q01DX Z (ip), vehicle: methylcellulose (MC) 107 % of control | dose: 12.5 mg/kg/injection, schedule: Q01DX Z (ip), vehicle: methylcellulose (MC) 102 % of control

O=C(Nc1cccc2ccccc12)c1cccc([N+](=O)[O-])c1C(=O)O
inactive: [6] 99 % of control | [7] 92 % of control | [8] 96 % of control

CN(C)C(N1CC1)N1CC1
inactive: dose: 10.0 mg/kg/injection, schedule: Q04DX002 (ip), vehicle: saline 112 % of control | dose: 20.0 mg/kg/injection, schedule: Q04DX002 (ip), vehicle: saline 108 % of control | dose: 40.0 mg/kg/injection, schedule: Q04DX002 (ip), vehicle: saline 97 % of control

CCOC(=O)C(O)C(Cl)(CC)c1ccccc1 (centres undefined)
inactive: [6] 95 % of control | [7] 100 % of control | [8] 122 % of control

COc1cc2c(cc1OC)C(=O)C(c1[nH]c3cc(OC)c(OC)cc3c1O)=N2
inactive: dose: 50.0 mg/kg/injection, schedule: Q01DX001 (ip), vehicle: saline 98 % of control | dose: 100.0 mg/kg/injection, schedule: Q01DX001 (ip), vehicle: saline 98 % of control | dose: 200.0 mg/kg/injection, schedule: Q01DX001 (ip), vehicle: saline 96 % of control | dose: 400.0 mg/kg/injection, schedule: Q01DX001 (ip), vehicle: saline 96 % of control

O=C1C=CC(=O)N1CO
inactive: dose: 2.5 mg/kg/injection, schedule: Q01DX009 (ip), vehicle: saline 91 % of control | dose: 2.5 mg/kg/injection, schedule: Q04DX003 (ip), vehicle: saline 96 % of control | dose: 5.0 mg/kg/injection, schedule: Q01DX009 (ip), vehicle: saline 94 % of control | dose: 5.0 mg/kg/injection, schedule: Q04DX003 (ip), vehicle: saline 98 % of control | dose: 10.0 mg/kg/injection, schedule: Q04DX003 (ip), vehicle: saline 91 % of control

Cc1cccnc1NC1=NCCO1
inactive: dose: 100.0 mg/kg/injection, schedule: Q01DX009 (ip), vehicle: saline with Tween-80 100 % of control | dose: 200.0 mg/kg/injection, schedule: Q01DX009 (ip), vehicle: saline with Tween-80 96 % of control | dose: 400.0 mg/kg/injection, schedule: Q01DX009 (ip), vehicle: saline with Tween-80 93 % of control

CCCCCCCCCCCCc1ccc(CSC(C(=O)OC)C(SCc2ccc(CCCCCCCCCCCC)cc2)C(=O)OC)cc1 (centres undefined)
inactive: [1] 103 % of control | [2] 101 % of control | [3] 94 % of control
